The values below come from patent US20230114177A1, “NOVEL DEUTERIUM-SUBSTITUTED PYRIMIDINE DERIVATIVE AND PHARMACEUTICAL COMPOSITION COMPRISING SAME” (ONCOBIX CO., LTD., priority 2019, published 2023).

Data set [1] deals with BaF3 (de119/T790M/C797S). Description: Measurement of inhibitory effect on cancer cell growth (GI50). The class given is cell-based. To be noted: for GI50: Mus musculus, concentration to inhibit 50% of cell growth, BaF3 cells with EGFR de119/T790M/C797S; for activity against cancer cell lines expressing the C797S mutant epidermal growth factor receptor: summary in words of Table 1.

Data set [2] is described as follows: Pharmacokinetic evaluation in rats. It counts as in vivo. To be noted: single dose; for absolute absorption rate: compared with hydrogen-substituted reference substance (FIGS. 1 to 4). Here is the method: Pharmacokinetic tests were carried out in rats as follows for the compounds obtained from Examples 1 and 2 above and the compound of Example 2 in which deuterium was substituted with hydrogen (hydrogen-substituted reference substance).
After the test substances were prepared to 2.5 or 5 mg/mL using WFI (water for injection), the rats were administered as a single dose at a prescribed dose (10 mL/kg), and blood was collected at a predetermined time (0, 0.25, 0.5, 1, 2, 4, 6, 8, 10, 24 hours), and then plasma was separated. Analysis of the drug was carried out using HPLC (XBridge column C18, Waters, mobile phase of 0.1% formic acid:acetonitrile (30:70, %/%)) and MS/MS (ESI positive, MRM), and concentrations of 5, 50, 100, 500, 1,000, and 5,000 ng/ml were prepared and measured by mixing rat blank plasma and each commercial standard solution at a ratio of 9:1. In addition, QC sample preparations were prepared at concentrations of 100, 750, and 2,500 ng/ml by mixing rat blank plasma and QC standard solution in a 9:1 ratio. As for the pretreatment method, 100 μl of the plasma sample was transferred to a centrifuge tube, and 10 μl of the internal standard solution and 300 μl of methanol were added thereto, and then mixed for about 30 seconds. The tube was centrifuged for about 5 minutes at a rotation speed of 12,000 rpm (4° C.) using a centrifuge, and the supernatant was taken, transferred to an LC vial and then injected into the device. Thereafter, the concentration of the drug in rat plasma was quantified by applying the previously verified assay. For pharmacokinetic parameters, WinNonlin 5.2 (Pharsight, USA) program was used, and AUC0-t, AUC0-∞, Cmax, Tmax, and t1/2 were calculated by noncompartment modeling (best fit). Pharmacokinetic parameter results were expressed as mean and standard deviation (SD), and statistically processed using the SPSS program (Statistical Package for the Social Sciences, 10.0K, USA).

In the case of `C=CC(=O)Nc1cc(Nc2nccc(-c3cn(C)c4ccccc34)n2)c(OC)cc1N(C)CCN(C)C` [Osimertinib, osimertinib, reference compound], in data set [1], the GI50 was above 1000 nM and the “activity against cancer cell lines expressing the C797S mutant epidermal growth factor receptor” value (from here on “activity”) is on record as “poor activity”.
Regarding `[2H]C([2H])([2H])N(c1ccccc1Nc1nc(Nc2ccc(N3CCC(N4CCN(C)CC4)CC3)cc2OC)ncc1Cl)S(C)(=O)=O` [Example 2], in data set [1], the 50% growth inhibitory concentration (GI50) was at most 500 nM and the “activity” value was “excellent activity”. In addition, in data set [2], the “relative absorption rate compared to the hydrogen-substituted reference substance” value came to 111.4% and the absolute absorption rate entry is reported as “equivalent to or greater than the control drug”.
For `[2H]C([2H])([2H])N1CCN(C2CCN(c3ccc(Nc4ncc(Cl)c(Nc5ccccc5N(C)S(C)(=O)=O)n4)c(OC)c3)CC2)CC1` [Example 1, N-(2-((5-Chloro-2-((2-Methoxy-4-(4-(4-(Methyl-d3)Piperazin-1-Yl)Piperidin-1-Yl)Phenyl)Amino)Pyrimidin-4-Yl)Amino)Phenyl)-N-Methylmethanesulfonamide], in data set [1], the concentration for 50% growth inhibition (GI50) was at most 500 nM and the “activity” value was “excellent activity”. Besides, in data set [2], the absolute absorption rate entry is “equivalent to or greater than the control drug”.

What is called GI50 is the concentration at which growth is held to half of that of the control. Read a high GI50 as lower sensitivity of the cells.
